These results are taken from publication PMC12293048, “New Benzimidazole 3′-Deoxynucleosides: Synthesis and Antiherpes Virus Properties” (Biomolecules, 2025).

For data set [1], the system named is HSV-1/L2/R^ACV. In words: microbe, parasite or virus in culture. It is filed as cell-based, herpes simplex virus 1. Particulars: for IC95: Human alphaherpesvirus 1, Vero C1008, read-out: IC95 HSV-1/L2/R^ACV, CPE inhibited almost completely, Vero E6, MOI 0.01, acyclovir-resistant strain. The protocol:
(§1) Vero 6 cells for determining cytotoxicity and antiviral activity were cultured according to the method described in [29].
In 96-well plastic plates with the generated cell monolayer, serial dilutions of the compounds were prepared at […] 1:2 with the maintenance medium (Eagle′s medium and medium 199, mixed in a ratio 1:1). Vero E6 cells were then infected with the infection material at an MOI of 0.01 PFU/cell; incubation was performed at 37 °C in an atmosphere of 5% CO2. Cytotoxicity was determined quantitatively by the trypan blue exclusion method and expressed as CD50: the concentration of the drug at which 50% of cells die after 72 h. […] The duration of incubation was 48 h and 72 h for MOI […], respectively. […] An antiviral activity was assessed by determining ID50 and ID95 (concentrations of compounds that inhibit the development of virus-induced CPE as compared with the control by 50% and almost completely). […] The results of three independent experiments are shown in Table S1 (Supplementary Materials).

The subject of data set [2] is Vero E6 cells. In words: Cytotoxicity, trypan blue exclusion. The format is cell-based. The note with it: for CD50: 50% cytotoxic concentration, Vero E6 cells, 72 h; for MTC (maximal tolerable concentration): highest concentration that does not cause death of Vero E6 cells.
The test system of data set [3] is HSV-1/L2. In words: CPE inhibition assay, HSV-1 reference strain L2 in Vero E6 cells. Particulars: for IC95: Human alphaherpesvirus 1, Vero C1008, CPE inhibited almost completely. It is filed as cell-based, herpes simplex virus 1. The protocol: as §1
Vero E6 cells were then infected with the infection material at an MOI of 0.01 PFU/cell; incubation was performed at 37 °C in an atmosphere of 5% CO2. […] The duration of incubation was 48 h and 72 h for MOI 0.01 PFU/mL, respectively. […] The results of three independent experiments are shown in Table S1 (Supplementary Materials).

For data set [4], the system named is HCMV. Particulars: cited from earlier work.
Data set [5] deals with HSV-1. Particulars: cited from earlier work.
Where [6] appears, read: Human alphaherpesvirus 1, Vero C1008, read-out: IC50 HSV-1/L2/R^ACV, CPE inhibition by 50%, Vero E6, MOI 0.01, acyclovir-resistant TK-negative strain.
The mark [7] stands for this setting: Human alphaherpesvirus 1, Vero C1008, read-out: IC50 HSV-1/L2, CPE inhibition by 50%, Vero E6, MOI 0.01.
Where [8] appears, read: read-out: IC50 HSV-1/L2, CPE inhibition by 50%, Vero E6, MOI 0.01.

Several values for one entry are separate records, joined by “and”; a condition that tells them apart may be missing. Identical values can stand only once. Like-named read-outs stand apart in the source and are kept apart here.

On to `OC[C@@H]1C[C@@H](O)[C@H](n2cnc3cc(F)c(F)cc32)O1` [Compound 10, 5,6-Difluoro-1-(β-D-3′-deoxyribofuranosyl)benzimidazole], for which the IC50 in data set [1] (setting [6]) is 1480 µM; in data set [3] (setting [7]), 246 µM; in data set [3] (setting [8]) it was 246 µM. Also, the IC95 in data set [1] was no less than 1970 µM; in data set [3] (Vero E6, MOI 0.01), 985 µM. Further, the CD50 in data set [2] turned out to be 2901.81 ± 60.28 µM. In addition, in data set [2], the “MTC (maximal tolerable concentration)” value was 1970.86 µM.

As to `COc1cc2nc(N)[nH]c2cc1F` [Compound 7, 2-amino-5-fluoro-6-methoxybenzimidazole], the IC50 in data set [1] (setting [6]), in data set [3] (setting [7]) and in data set [3] (setting [8]) was 173 µM throughout. In data set [2], this compound gave a CD50 of 2165.79 ± 33.74 µM. Also, the “MTC (maximal tolerable concentration)” value in data set [2] is 1380.68 µM. This compound gave an IC95 in data set [3] (Vero E6, MOI 0.01) of 690 µM.

Regarding `Fc1cc2nc[nH]c2c(F)c1F` [Compound 4, 4,5,6-Trifluorobenzimidazole], the IC50 in data set [1] (setting [6]), in data set [3] (setting [7]) and in data set [3] (setting [8]) was 363 µM in each case. The CD50 in data set [2] turned out to be 2179.98 ± 27.03 µM. The “MTC (maximal tolerable concentration)” value in data set [2] was 1453.32 µM. The same compound displayed an IC95 in data set [3] (Vero E6, MOI 0.01) of 1450 µM.

As for `COc1c(F)cc2nc[nH]c2c1F` [Compound 5, 4,6-Difluoro-5-methoxybenzimidazole], the IC50 in data set [1] (setting [6]) is 1360 µM. In addition, in data set [2], the CD50 is 2909.48 ± 123.18 µM and the “MTC (maximal tolerable concentration)” value came to 1358.40 µM. In addition, the IC95 in data set [3] (Vero E6, MOI 0.01) amounted to 2720 µM. In addition, in data set [3] (setting [7]), the IC50 amounted to 1020 µM.

As to `c1ccc2[nH]cnc2c1` [Compound 1, Benzimidazole], the IC50 in data set [1] (setting [6]), in data set [3] (setting [7]) and in data set [3] (setting [8]) was 1060 µM each time. In addition, in data set [2], the CD50 was determined as 6313.85 ± 167.47 µM. The “MTC (maximal tolerable concentration)” value in data set [2] came out at 4235.49 µM. For the same compound, the IC95 in data set [3] (Vero E6, MOI 0.01) stood at 4240 µM.

Turning to `Fc1cc2nc[nH]c2cc1F` [Compound 2, 5,6-Difluorobenzimidazole], the IC50 in data set [1] (setting [6]) was 406 µM; in data set [3] (setting [7]) it was 203 µM; in data set [3] (setting [8]), 203 µM. Besides, the CD50 in data set [2] turned out to be 2433.81 ± 37.72 µM. Also, the “MTC (maximal tolerable concentration)” value in data set [2] amounted to 1623.06 µM. The compound also displayed an IC95 in data set [3] (Vero E6, MOI 0.01) of 1620 µM.

As to `Nc1nc2cc(F)c(F)cc2n1[C@@H]1O[C@H](CO)C[C@H]1O` [Compound 16, 2-Amino-5,6-difluoro-1-(β-D-3′-deoxyribofuranosyl)benzimidazole], the IC50 in data set [1] (setting [6]), in data set [3] (setting [7]) and in data set [3] (setting [8]) was 996 µM in each case. Also, the IC95 was greater than 1990 µM in data set [1] and greater than 1990 µM in data set [3] (Vero E6, MOI 0.01). The CD50 in data set [2] was 3315.58 ± 141.99 µM. The “MTC (maximal tolerable concentration)” value in data set [2] is 1991.35 µM.

As to `Nc1nc2cc(F)c(F)cc2[nH]1` [Compound 8, 2-Amino-5,6-difluorobenzimidazole], the IC50 in data set [1] (setting [6]), in data set [3] (setting [7]) and in data set [3] (setting [8]) was 370 µM throughout. This compound also gave a CD50 in data set [2] of 1659.39 ± 60.16 µM. The “MTC (maximal tolerable concentration)” value in data set [2] is recorded as 739.43 µM. The same compound came in with an IC95 in data set [3] (Vero E6, MOI 0.01) of 739 µM.

For `OC[C@@H]1C[C@@H](O)[C@H](n2cnc3c(F)c(F)c(F)cc32)O1` [Compound 12a, 4,5,6-trifluoro-1-(β-D-3′-deoxyribofuranosyl)benzimidazole], the IC50 worked out at 494 µM in data set [1] (setting [6]), 250 µM in data set [3] (setting [7]) and 250 µM in data set [3] (setting [8]). Further, the IC95 is 2000 µM in data set [1] and 1000 µM in data set [3] (Vero E6, MOI 0.01). The compound also gave a CD50 in data set [2] of no less than 3999.31 µM. The “MTC (maximal tolerable concentration)” value in data set [2] came to 1999.65 µM.

Consider `Fc1cc(F)c2[nH]cnc2c1` [Compound 3, 4,6-Difluorobenzimidazole], for which the IC50 in data set [1] (setting [6]), in data set [3] (setting [7]) and in data set [3] (setting [8]) was 812 µM each time. Further, the CD50 in data set [2] turned out to be 2489.32 ± 92.46 µM. Further, the “MTC (maximal tolerable concentration)” value in data set [2] stood at 811.53 µM. The IC95 in data set [3] (Vero E6, MOI 0.01) stood at 1620 µM.

For `Nc1nc2c(ncn2COCCO)c(=O)[nH]1` [acyclovir, reference compound], the IC50 in data set [1] (Human alphaherpesvirus 1, Vero C1008, virus variant profoundly resistant to acyclovir) is > 100 µg/mL and > 444 µM.

Take `NC(=O)c1ncn([C@@H]2O[C@H](CO)[C@@H](O)[C@H]2O)n1` [ribavirin, reference compound]: in data set [1] (setting [6]), the IC50 is 512 µM. Also, the “MTC (maximal tolerable concentration)” value in data set [2] is given as 4095.00 µM. Further, in data set [3] (Vero E6, MOI 0.01), the IC95 was 2050 µM.

In the case of `COc1c(F)cc2c(ncn2[C@@H]2O[C@H](CO)C[C@H]2O)c1F` [Compound 13, 4,6-Difluoro-5-metoxy-1-(β-D-3′-deoxyribofuranosyl)benzimidazole], the IC50 in data set [1] (setting [6]) and in data set [3] (setting [7]) was 3000 µM throughout. Also, the “MTC (maximal tolerable concentration)” value in data set [2] is reported as 1665.22 µM. Further, the IC95 in data set [3] (Vero E6, MOI 0.01) was found to be 3330 µM.

On to `OC[C@@H]1C[C@@H](O)[C@H](n2cnc3ccccc32)O1` [Compound 9, 1-(β-D-3′-Deoxyribofuranosyl)benzimidazole], for which the IC50 worked out at 1250 µM in data set [1] (setting [6]), 626 µM in data set [3] (setting [7]) and 626 µM in data set [3] (setting [8]). Besides, the IC95 is 5020 µM in data set [1] and 2510 µM in data set [3] (Vero E6, MOI 0.01). In data set [2], this compound had a CD50 greater than 5019.25 µM. The “MTC (maximal tolerable concentration)” value in data set [2] worked out at 2505.13 µM.

In the case of `OC[C@@H]1C[C@@H](O)[C@H](n2cnc3c(F)cc(F)cc32)O1` [Compound 11a, 4,6-difluoro-1-(β-D-3′-deoxyribofuranosyl)benzimidazole], the IC50 in data set [1] (setting [6]) was less than 2010 µM; in data set [3] (setting [7]), 251 µM; in data set [3] (setting [8]), 251 µM. Moreover, the IC95 was 2010 µM in data set [1] and 1000 µM in data set [3] (Vero E6, MOI 0.01). The compound also registered a CD50 in data set [2] greater than 2007.37 µM. Besides, the “MTC (maximal tolerable concentration)” value in data set [2] is given as 1003.68 µM.

`OC[C@H]1O[C@@H](n2cnc3cc(Cl)c(Cl)cc32)[C@H](O)[C@@H]1O` [DRB, 5,6-dichloro-1-(β-D-ribofuranosyl)benzimidazole]: the IC50 in data set [4] was 42 µM; in data set [5] it was 30 µM.

For the compound `Nc1nc2ccccc2[nH]1` [Compound 6, 2-aminobenzimidazole], the results for the IC50 in data set [1] (setting [6]), in data set [3] (setting [7]) and in data set [3] (setting [8]) were 705 µM, 470 µM and 470 µM, respectively. In data set [2], this compound displayed a CD50 of 1422.89 ± 18.04 µM. Further, the “MTC (maximal tolerable concentration)” value in data set [2] amounted to 939.43 µM. The compound also had an IC95 in data set [3] (Vero E6, MOI 0.01) of 939 µM.
